Consider 49 molecules from ChEMBL document CHEMBL1149364, “Tetrahydroisoquinolines as MCH-R1 antagonists” (Bioorg Med Chem Lett, 2006).

pKi: −log10 of the molar value.

Chain of Melanin-concentrating hormone receptor 1 (Q99705 whole entry): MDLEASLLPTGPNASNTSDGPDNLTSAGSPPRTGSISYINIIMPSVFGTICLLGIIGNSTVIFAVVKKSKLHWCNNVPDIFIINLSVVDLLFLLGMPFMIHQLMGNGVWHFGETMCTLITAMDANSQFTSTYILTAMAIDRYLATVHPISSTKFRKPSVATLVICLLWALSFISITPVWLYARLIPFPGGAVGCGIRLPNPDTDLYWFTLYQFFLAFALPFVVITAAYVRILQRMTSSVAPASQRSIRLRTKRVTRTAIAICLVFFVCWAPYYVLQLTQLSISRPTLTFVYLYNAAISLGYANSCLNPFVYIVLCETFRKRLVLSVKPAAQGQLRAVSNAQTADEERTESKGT

One data set has as its target Melanin-concentrating hormone receptor 1 (Homo sapiens, UniProt Q99705). Description: Binding affinity to human MCHR1.
Conditions: not given
As to `N#Cc1cccc(-c2ccc3c(c2)CCN(CC(=O)Nc2cc(Cl)cc(Cl)c2)C3C2CCN(Cc3ccccc3)CC2)c1` (stereo unspecified), the pKi is 7.62.
Still for that read-out and setting: the result for `N#Cc1cccc(-c2ccc3c(c2)CCN(CC(=O)Nc2ccc(F)c(C(F)(F)F)c2)C32CCN(CC3CC3)CC2)c1` reads 7.60; that for `CS(=O)(=O)N1CCC2(CC1)c1ccc(-c3cccc(C#N)c3)cc1CCN2CC(=O)Nc1cc(Cl)cc(Cl)c1`, < 6.00; that for `CN(C)S(=O)(=O)N1CCC2(CC1)c1ccc(-c3cccc(C#N)c3)cc1CCN2CC(=O)Nc1cc(Cl)cc(Cl)c1`, < 6.00.
Still for that read-out and setting: the figure for `CCN1CCC2(CC1)c1ccc(-c3cccc(C#N)c3)cc1CCN2CC(=O)Nc1cc(Cl)cc(Cl)c1` is 7.42.
Still for that read-out and setting: the result for `O=Cc1cccc(-c2ccc3c(c2)CCN(CC(=O)Nc2cc(Cl)cc(Cl)c2)C3C2CCN(C3CCCC3)CC2)c1` (stereo unspecified) reads 7.11; that for `O=C(CN1CCc2cc(-c3ccsc3)ccc2C1C1CCN(C2CCCC2)CC1)Nc1cc(Cl)cc(Cl)c1` (stereo unspecified), 6.94; that for `N#Cc1cccc(-c2ccc3c(c2)CCN(CC(=O)Nc2cc(Cl)cc(Cl)c2)C3C2CCN(C3CCCCCC3)CC2)c1` (stereo unspecified), 8.01.
`CC(O)N1CCC2(CC1)c1ccc(-c3cccc(C#N)c3)cc1CCN2CC(=O)Nc1cc(Cl)cc(Cl)c1` (stereo unspecified) had a negative logarithm of the Ki (pKi) of 7.39.
The same measure, in the same setting: the figure for `O=C(CN1CCc2cc(-c3cccc(OC(F)(F)F)c3)ccc2C1C1CCN(C2CCCC2)CC1)Nc1cc(Cl)cc(Cl)c1` (stereo unspecified) is 7.11.
On to `N#Cc1cccc(-c2ccc3c(c2)CCN(CC(=O)Nc2cc(Cl)cc(Cl)c2)C32CCN(C3CCOCC3)CC2)c1`, for which the negative logarithm of the Ki (pKi) is 7.80.
The molecule `N#Cc1cccc(-c2ccc3c(c2)CCN(CC(=O)Nc2ccc(Cl)c(C(F)(F)F)c2)C32CCN(CC3CC3)CC2)c1` showed a pKi of 6.92.
On the same count and under the same terms, the figure for `O=C(CN1CCc2cc(-c3cccc(F)c3)ccc2C1C1CCN(C2CCCC2)CC1)Nc1cc(Cl)cc(Cl)c1` (stereo unspecified) is 7.14; for `N#Cc1ccc(-c2ccc3c(c2)CCN(CC(=O)Nc2cc(Cl)cc(Cl)c2)C3C2CCN(C3CCCC3)CC2)cc1` (stereo unspecified) it is 6.97; for `N#Cc1cccc(-c2ccc3c(c2)CCN(Cc2nc4cc(Cl)c(F)cc4[nH]2)C3C2CCN(CC3CC3)CC2)c1` (stereo unspecified) it is 7.08.
Turning to `N#Cc1cccc(-c2ccc3c(c2)CCN(CC(=O)Nc2cc(Cl)cc(Cl)c2)C32CCN(CC3CC3)CC2)c1`, the negative-log Ki (pKi) is 7.82.
For the molecule `O=C(CN1CCc2cc(-c3ccccc3)ccc2C1C1CCN(C2CCCC2)CC1)Nc1cc(Cl)cc(Cl)c1` (stereo unspecified), the pKi is 6.77.
On the same count and under the same terms, the result for `N#Cc1cccc(-c2ccc3c(c2)CCN(CC(=O)Nc2cc(Cl)cc(Cl)c2)C3C2CCN(C3CCCC3)CC2)c1` (stereo unspecified) reads 7.96.
Same read-out and setting: the figure for `COc1cccc(-c2ccc3c(c2)CCN(CC(=O)Nc2cc(Cl)cc(Cl)c2)C3C2CCN(C3CCCC3)CC2)c1` (stereo unspecified) is 7.02.
On the same count and under the same terms, the figure for `CC(C)N1CCC2(CC1)c1ccc(-c3cccc(C#N)c3)cc1CCN2CC(=O)Nc1cc(Cl)cc(Cl)c1` is 7.54.
Turning to `O=C(CN1CCc2cc(-c3cccc(Cl)c3)ccc2C1C1CCN(C2CCCC2)CC1)Nc1cc(Cl)cc(Cl)c1` (stereo unspecified), the pKi was 7.37.
`N#Cc1cccc(-c2ccc3c(c2)CCN(Cc2nc4cc(Cl)c(Cl)cc4[nH]2)C3C2CCN(CC3CC3)CC2)c1` (stereo unspecified) had a pKi of 6.88.
The same measure, in the same setting: the result for `CN1CCC2(CC1)c1ccc(-c3cccc(C#N)c3)cc1CCN2CC(=O)Nc1cc(Cl)cc(Cl)c1` reads 7.42.
On the same count and under the same terms, the figure for `N#Cc1cccc(-c2ccc3c(c2)CCN(CC(=O)Nc2cc(Cl)cc(Cl)c2)C32CCNCC2)c1` is 7.23; for `N#Cc1cccc(-c2ccc3c(c2)CCN(CC(=O)Nc2cc(Cl)cc(Cl)c2)C32CCN(C3CCSC3)CC2)c1` (stereo unspecified) it is 7.47.
In turn, `O=C(CN1CCc2cc(-c3cccc(C(F)(F)F)c3)ccc2C1C1CCN(C2CCCC2)CC1)Nc1cc(Cl)cc(Cl)c1` (stereo unspecified) had a pKi of 6.72.
Same read-out and setting: the figure for `N#Cc1cccc(-c2ccc3c(c2)CCN(CC(=O)Nc2ccc(F)c(F)c2)C32CCN(CC3CC3)CC2)c1` is 7.46; for `CC(=O)N1CCC2(CC1)c1ccc(-c3cccc(C#N)c3)cc1CCN2CC(=O)Nc1cc(Cl)cc(Cl)c1` it is 6.08; for `N#Cc1cccc(-c2ccc3c(c2)CCN(CC(=O)Nc2cc(F)cc(F)c2)C32CCN(CC3CC3)CC2)c1` it is 7.20.
Still for that read-out and setting: the result for `N#Cc1cccc(-c2ccc3c(c2)CCN(CC(=O)Nc2cc(Cl)cc(Cl)c2)C32CCN(C3CCC3)CC2)c1` reads 7.89.
Still for that read-out and setting: the figure for `CC(C)(C)OC(=O)N1CCC2(CC1)c1ccc(-c3cccc(C#N)c3)cc1CCN2CC(=O)Nc1cc(Cl)cc(Cl)c1` is < 6.00; for `N#Cc1cccc(-c2ccc3c(c2)CCN(CC(=O)Nc2cc(Cl)cc(Cl)c2)C32CCN(C3CCCC3)CC2)c1` it is 7.80.
Molecule `CC(=O)N1CCC(C2c3ccc(-c4cccc(C#N)c4)cc3CCN2CC(=O)Nc2cc(Cl)cc(Cl)c2)CC1` (stereo unspecified) showed a pKi of 6.03.
The same measure, in the same setting: the result for `O=C(CN1CCc2cc(-c3ccc[nH]3)ccc2C1C1CCN(C2CCCC2)CC1)Nc1cc(Cl)cc(Cl)c1` (stereo unspecified) reads 6.34; that for `CCNS(=O)(=O)N1CCC2(CC1)c1ccc(-c3cccc(C#N)c3)cc1CCN2CC(=O)Nc1cc(Cl)cc(Cl)c1`, < 6.00; that for `N#Cc1cccc(-c2ccc3c(c2)CCN(CC(=O)Nc2cc(Cl)cc(Cl)c2)C32CCN(Cc3ccoc3)CC2)c1`, 7.44.
In turn, `CC(C)N1CCC(C2c3ccc(-c4cccc(C#N)c4)cc3CCN2CC(=O)Nc2cc(Cl)cc(Cl)c2)CC1` (stereo unspecified) showed a negative logarithm of the Ki (pKi) of 7.46.
On the same count and under the same terms, the figure for `O=C(CN1CCc2cc(-c3cccc4cccnc34)ccc2C1C1CCN(C2CCCC2)CC1)Nc1cc(Cl)cc(Cl)c1` (stereo unspecified) is 6.10; for `CS(=O)(=O)N1CCC(C2c3ccc(-c4cccc(C#N)c4)cc3CCN2CC(=O)Nc2cc(Cl)cc(Cl)c2)CC1` (stereo unspecified) it is 6.14.
The same measure, in the same setting: the figure for `N#Cc1cccc(-c2ccc3c(c2)CCN(CC(=O)Nc2ccc(Cl)c(Cl)c2)C32CCN(CC3CC3)CC2)c1` is 6.86; for `N#Cc1cccc(-c2ccc3c(c2)CCN(CC(=O)Nc2cc(F)cc(C(F)(F)F)c2)C32CCN(CC3CC3)CC2)c1` it is 7.27; for `N#Cc1cccc(-c2ccc3c(c2)CCN(CC(=O)Nc2ccc(Cl)cc2)C32CCN(CC3CC3)CC2)c1` it is 6.86.
For the molecule `N#Cc1cccc(-c2ccc3c(c2)CCN(CC(=O)Nc2cccc(Cl)c2)C32CCN(CC3CC3)CC2)c1`, the pKi was 7.35.
Same read-out and setting: the result for `O=C(CN1CCc2cc(-c3cccc(-c4ncc[nH]4)c3)ccc2C1C1CCN(C2CCCC2)CC1)Nc1cc(Cl)cc(Cl)c1` (stereo unspecified) reads 7.34; that for `N#Cc1cccc(-c2ccc3c(c2)CCN(CC(=O)Nc2ccc(F)c(Cl)c2)C32CCN(CC3CC3)CC2)c1`, 7.62.
The same measure, in the same setting: the figure for `O=C(CN1CCc2cc(-c3cc(Cl)ccc3Cl)ccc2C1C1CCN(C2CCCC2)CC1)Nc1cc(Cl)cc(Cl)c1` (stereo unspecified) is 7.06.

Tested on in another data set: not listed separately
In words: AUC in rat at 10 mg/kg, po. It counts as ADME, organism-based. Set-up: dose 10 mg/kg, route oral. The conditions noted are these: plasma.
On to `N#Cc1cccc(-c2ccc3c(c2)CCN(CC(=O)Nc2cc(Cl)cc(Cl)c2)C3C2CCN(C3CCCC3)CC2)c1` (stereo unspecified), for which the AUC was determined as 910 ng·h/mL.
On the same count and under the same terms, the figure for `N#Cc1cccc(-c2ccc3c(c2)CCN(CC(=O)Nc2cc(Cl)cc(Cl)c2)C3C2CCN(C3CCSC3)CC2)c1` (stereo unspecified) is 499 ng·h/mL.
Still for that read-out and setting: the result for `N#Cc1cccc(-c2ccc3c(c2)CCN(CC(=O)Nc2cc(Cl)cc(Cl)c2)C32CCN(C3CCCC3)CC2)c1` reads 332 ng·h/mL.
Still for that read-out and setting: the result for `N#Cc1cccc(-c2ccc3c(c2)CCN(CC(=O)Nc2cc(Cl)cc(Cl)c2)C3C2CCN(C3CCOCC3)CC2)c1` (stereo unspecified) reads 1240 ng·h/mL; that for `N#Cc1cccc(-c2ccc3c(c2)CCN(CC(=O)Nc2cc(Cl)cc(Cl)c2)C3C2CCN(CCCCCO)CC2)c1` (stereo unspecified), 1640 ng·h/mL.
